Measurements: patent publication US20260035360A1, “INHIBITORS OF MYC AND USES THEREOF” (Northwestern University, priority 2022, published 2026)
pIC50: −log10 of the molar value. Where two headings read alike, the source gives them in different places.

Columns and labels:
Type in all cases: cell-based
[1] = target: T1, MYC (Homo sapiens, UniProt P01106); test: MYC protein level in PC3 cells by western blot, 24 hr; details: Actin control; for remaining activity at 10 µM: read-out: Relative MYC protein at 10 μM (%, PC3 24 h)
T1 construct: endogenous in cells; host or cells: PC3 cells
T1 sequence (P01106 whole entry): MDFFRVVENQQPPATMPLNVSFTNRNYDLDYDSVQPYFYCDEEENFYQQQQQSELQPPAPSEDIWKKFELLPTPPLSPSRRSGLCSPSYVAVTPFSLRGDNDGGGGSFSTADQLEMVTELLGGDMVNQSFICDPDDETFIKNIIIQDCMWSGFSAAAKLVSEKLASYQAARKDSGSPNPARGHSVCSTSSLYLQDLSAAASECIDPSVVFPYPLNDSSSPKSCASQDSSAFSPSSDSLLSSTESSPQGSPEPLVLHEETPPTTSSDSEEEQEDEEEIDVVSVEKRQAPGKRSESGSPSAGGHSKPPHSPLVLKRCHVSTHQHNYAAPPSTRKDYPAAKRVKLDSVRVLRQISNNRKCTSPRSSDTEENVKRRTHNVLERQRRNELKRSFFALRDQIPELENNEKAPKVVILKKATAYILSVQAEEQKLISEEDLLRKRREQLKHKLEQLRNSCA
Description: (§1) Table 2. Biological data of selected compounds. For IC50 determination. PC3 and PC12 cells were treated with increasing concentrations of the indicated compounds for 72 hrs and cell viability assessed using CellTitreGlo Assay (Promega). For MYC and ATF4 protein level determination. PC3 cells were treated with the indicated compounds for 24 hr sand cell lysates processed for western blot with MYC and ATF4 antibodies using Actin as a control. Quantification analyses were performed by Biorad ChemiDoc Imager and Bio-Rad Image Lab software.

[2] = system: PC3 cells; test: PC3 cell viability, CellTitreGlo Assay, 72 hrs; details: Homo sapiens, PC-3
Description: as §1

[3] = system: ATF4; test: ATF4 protein level in PC3 cells by western blot, 24 hr; details: Actin control; for fold induction at 10 µM: Homo sapiens, PC-3, PC3, 24 h, read-out: Relative ATF4 protein at 10 μM (fold change, PC3 24 h)
Description: as §1

Row | SMILES | remaining activity at 10 µM ([1]; PC-3, 24 h, PC3, 24 h) [%] | pIC50 [2] | fold induction at 10 µM [3] | remaining activity at 10 µM ([1]; PC-3, PC3, 24 h) [%] | Relative MYC protein at 10 μM (%, PC3 24 h) [1] [%] | Relative ATF4 protein at 10 μM (fold change, PC3 24 h) [3] [fold change]
1 | Cn1nc(C(F)(F)F)cc1-c1ccc(N(CCCOCCC(=O)NCCOCCOCCOCCNc2cccc3c2C(=O)N(C2CCC(=O)NC2=O)C3=O)C(=O)c2ccc(Cl)c(C(F)(F)F)c2)cc1O (centres unmarked) [NUCC-0226289] | 120 | 5.13 | 7 |  |  | 
2 | CC(C)n1nc(C(F)(F)F)cc1-c1ccc(OCc2ccc(Cl)cc2)c(-c2ccc(Cl)c(C(F)(F)F)c2)c1O [NUCC-0226657] | 56.6 | 5.12 | 7.7 |  |  | 
3 | O=c1oc2c(-c3ccc(Cl)c(C(F)(F)F)c3)c(O)ccc2c2cc(C(F)(F)F)nn12 [NUCC-0226261] | 93.1 |  | 4.4 |  |  | 
4 | Cn1nc(C(F)(F)F)cc1-c1ccc(OCc2ccc(Cl)cc2)c(-c2ccc(Cl)cc2F)c1O [NUCC-0226497] | 93 | 4.61 | 5.9 |  |  | 
5 | CC(C)Cc1ccc(COc2ccc(-c3cc(C(F)(F)F)nn3C)c(O)c2-c2ccc(Cl)c(C(F)(F)F)c2)cc1 [NUCC-0226305] | 52.4 | 5.08 | 2.9 |  |  | 
6 | Cn1nc(C(F)(F)F)cc1-c1ccc(OCCCCCOCCOCCOc2cccc3c2C(=O)N(C2CCC(=O)NC2=O)C3=O)c(-c2ccc(Cl)c(C(F)(F)F)c2)c1O (centres unmarked) [NUCC-0226224] | 84.2 | 5.00 | 8.1 |  |  | 
7 | CNc1ccc(-c2cc(C(F)(F)F)nn2C)c(O)c1-c1ccc(Cl)c(C(F)(F)F)c1 [NUCC-0226527] | 50.8 | 5.21 | 1.2 |  |  | 
8 | Cn1nc(C(F)(F)F)cc1-c1ccc(OCc2ccc(Cl)cc2)c(-c2ccc(F)c(F)c2)c1O [NUCC-0226504] | 32.5 | 5.14 | 5.2 |  |  | 
9 | Cc1ncsc1-c1ccc(CNC(=O)[C@@H]2C[C@@H](O)CN2C(=O)[C@@H](NC(=O)C2(F)CC2)C(C)(C)C)c(OCCOCCOCCOCCOCCCCCOc2ccc(-c3cc(C(F)(F)F)nn3C)c(O)c2-c2ccc(Cl)c(C(F)(F)F)c2)c1 [NUCC-0226221] | 85.9 |  |  |  |  | 
10 | COCCOCCCN(C(=O)c1ccc(C(F)(F)F)c(Cl)c1)c1ccc(-c2cc(C(F)(F)F)nn2C)c(O)c1 [NUCC-0226268] | 52.9 |  | 5.4 |  |  | 
11 | COc1ccc(C2=N[C@@H](c3ccc(Cl)cc3)[C@@H](c3ccc(Cl)cc3)N2C(=O)N2CCN(CCCCCOc3ccc(-c4cc(C(F)(F)F)nn4C)c(O)c3-c3ccc(Cl)c(C(F)(F)F)c3)C(=O)C2)c(OC(C)C)c1 [NUCC-0226223] | 91.5 | 4.73 | 5.5 |  |  | 
12 | Cc1ncsc1-c1ccc(CNC(=O)[C@@H]2C[C@@H](O)CN2C(=O)[C@@H](NCCOCCNC(=O)CCOCCCOc2ccc(-c3cc(C(F)(F)F)nn3C)c(O)c2-c2ccc(Cl)c(C(F)(F)F)c2)C(C)(C)C)cc1 [NUCC-0226303] | 24 | 4.96 | 1.6 |  |  | 
13 | C[C@@H](Oc1ccc(-c2cc(C(F)(F)F)nn2C)c(O)c1-c1ccc(Cl)c(C(F)(F)F)c1)c1ccccc1 [NUCC-0226433] | 35 | 5.40 | 10.6 |  |  | 
14 | Cn1nc(C(N)=O)cc1-c1cc(Cl)c(COc2ccc(Cl)cc2)c(-c2ccc(Cl)c(C(F)(F)F)c2)c1O [NUCC-0227066] | 84.2 | 5.07 | 3.9 |  |  | 
15 | Cn1nc(C(F)(F)F)cc1-c1ccc(OCc2ccc(Cl)cc2)c(-c2cccc(F)c2)c1O [NUCC-0226498] | 67.8 | 4.39 | 4.8 |  |  | 
16 | CC(C)Cc1ccc([C@@H](C)Oc2ccc(-c3cc(C(F)(F)F)nn3C)c(O)c2-c2ccc(Cl)c(C(F)(F)F)c2)cc1 [NUCC-0226437] | 50.7 | 5.27 | 9 |  |  | 
17 | Cn1nc(C(F)(F)F)cc1-c1ccc(CCc2ccc(Cl)cc2)c(-c2ccc(Cl)c(C(F)(F)F)c2)c1O [NUCC-0226574] | 43.7 | 5.44 | 12 |  |  | 
18 | Cc1ncsc1-c1ccc(CNC(=O)[C@@H]2C[C@@H](O)CC2C(=O)[C@@H](NC(=O)COCCNC(=O)CCOCCCN(C(=O)c2ccc(Cl)c(C(F)(F)F)c2)c2ccc(-c3cc(C(F)(F)F)nn3C)c(O)c2)C(C)(C)C)cc1 (some centres unmarked) [NUCC-0226228] | 38.1 | 5.22 | 23.1 |  |  | 
19 | CC(C)Cc1ccc(C(C)Oc2ccc(-c3cc(C(F)(F)F)cn3C)c(O)c2-c2ccc(Cl)c(C(F)(F)F)c2)cc1 (centres unmarked) [NUCC-0226438] | 52.3 | 5.28 | 3.7 |  |  | 

Row | SMILES | remaining activity at 10 µM ([1]; PC-3, 24 h, PC3, 24 h) [%] | pIC50 [2] | fold induction at 10 µM [3] | remaining activity at 10 µM ([1]; PC-3, PC3, 24 h) [%] | Relative MYC protein at 10 μM (%, PC3 24 h) [1] [%] | Relative ATF4 protein at 10 μM (fold change, PC3 24 h) [3] [fold change]
20 | Cc1ncsc1-c1ccc(CNC(=O)[C@@H]2C[C@@H](O)CC2C(=O)[C@@H](NCCOCCOCCOCCCCCOc2ccc(-c3cc(C(F)(F)F)nn3C)c(O)c2-c2ccc(Cl)c(C(F)(F)F)c2)C(C)(C)C)cc1 (some centres unmarked) [NUCC-0226266] | 91.8 |  | 1.7 |  |  | 
21 | CC(C)Cc1ccc(CN(C(=O)c2ccc(Cl)c(C(F)(F)F)c2)c2ccc(-c3cc(C(F)(F)F)nn3C)c(O)c2)cc1 [NUCC-0226280] | 45.2 |  | 10.3 |  |  | 
22 | Cc1ncsc1-c1ccc(CNC(=O)[C@@H]2C[C@@H](O)CN2C(=O)[C@@H](NC(=O)C2(F)CC2)C(C)(C)C)c(OCCOCCOc2ccc(COc3ccc(-c4cc(C(F)(F)F)nn4C)c(O)c3-c3ccc(Cl)c(C(F)(F)F)c3)cc2)c1 [NUCC-0226277] | 97.6 |  | 1.6 |  |  | 
23 | Cc1ncsc1-c1ccc(CNC(=O)[C@@H]2C[C@@H](O)CN2C(=O)[C@@H](NC(=O)C2(F)CC2)C(C)(C)C)c(OCCOCCOCCOCCCCCOc2ccc(-c3cc(C(F)(F)F)nn3C)c(O)c2-c2ccc(Cl)c(C(F)(F)F)c2)c1 [NUCC-0226220] | 90.1 |  |  |  |  | 
24 | Cn1nncc1-c1ccc(OCc2ccc(Cl)cc2)c(-c2ccc(Cl)c(C(F)(F)F)c2)c1O [NUCC-0226659] | 90.3 |  | 1.5 |  |  | 
25 | Cn1nc(C(F)(F)F)cc1-c1ccc(OCc2ccccc2)c(-c2ccc(Cl)c(C(F)(F)F)c2)c1O [NUCC-0226260] |  |  | 4.6 | 41.5 |  | 
26 | CC(=O)Oc1c(-c2cc(C(F)(F)F)nn2C)ccc(OCc2ccccc2)c1-c1ccc(Cl)c(C(F)(F)F)c1 [NUCC-0226258] | 56.4 |  | 5.8 |  |  | 
27 | Cc1ncsc1-c1ccc(CNC(=O)[C@@H]2C[C@@H](O)CN2C(=O)[C@@H](NC(=O)C2(F)CC2)C(C)(C)C)c(OCCOCCOCCCCCOc2ccc(-c3cc(C(F)(F)F)nn3C)c(O)c2-c2ccc(Cl)c(C(F)(F)F)c2)c1 [NUCC-0226264] | 102 |  | 1.3 |  |  | 
28 | Cn1nc(C(F)(F)F)cc1-c1ccc(OCCCOCCC(=O)NCCOCCOCCNc2cccc3c2C(=O)N(C2CCC(=O)NC2=O)C3=O)c(-c2ccc(Cl)c(C(F)(F)F)c2)c1O (centres unmarked) [NUCC-0226304] | 170 |  | 4.6 |  |  | 
29 | Cc1ncsc1-c1ccc(CNC(=O)[C@@H]2C[C@@H](O)CN2C(=O)[C@@H](NCCOCCOCCCCCOc2ccc(-c3cc(C(F)(F)F)nn3C)c(O)c2-c2ccc(Cl)c(C(F)(F)F)c2)C(C)(C)C)cc1 [NUCC-0226265] | 115 |  | 2.2 |  |  | 
30 | Cn1nc(C(F)(F)F)cc1-c1ccc(O)c(-c2ccc(Cl)c(C(F)(F)F)c2)c1O [NUCC-0226259] | 52 |  | 3.3 |  |  | 
31 | Cn1nc(C(F)(F)F)cc1-c1ccc(OCc2ccc(OCCOCCNC(=O)COc3cccc4c3C(=O)N(C3CCC(=O)NC3=O)C4=O)cc2)c(-c2ccc(Cl)c(C(F)(F)F)c2)c1O (centres unmarked) [NUCC-0226302] | 79.4 |  | 2 |  |  | 
32 | Cn1nc(C(F)(F)F)cc1-c1ccc(N(CCCOCCC(=O)NCCCCNC(=O)COc2cccc3c2C(=O)N(C2CCC(=O)NC2=O)C3=O)C(=O)c2ccc(Cl)c(C(F)(F)F)c2)cc1O (centres unmarked) [NUCC-0226230] | 105 |  | 1.9 |  |  | 
33 | CC(=O)Oc1c(-c2cc(C(F)(F)F)nn2C)ccc(OCc2ccc(OCCOCCOS(=O)(=O)c3ccc(C)cc3)cc2)c1-c1ccc(Cl)c(C(F)(F)F)c1 [NUCC-0226263] | 113 |  | 0.7 |  |  | 
34 | Cn1nncc1-c1ccc(OCc2ccc(Cl)cc2)c(-c2ccc(Cl)c(C(F)(F)F)c2)c1O [NUCC-0226656] |  |  |  |  | 103 | 1.5
35 | Cn1nc(C(F)(F)F)cc1-c1ccc(OCCCCCNC(=O)[C@H](CCCN=C(NC(=O)OC(C)(C)C)NC(=O)OC(C)(C)C)NC(=O)OC(C)(C)C)c(-c2ccc(Cl)c(C(F)(F)F)c2)c1O [NUCC-0226219] | 90.6 |  |  |  |  | 
36 | Cn1nc(C(F)(F)F)cc1-c1ccc(OCc2ccc(OCCOCCOc3cccc4c3C(=O)N(C3CCC(=O)NC3=O)C4=O)cc2)c(-c2ccc(Cl)c(C(F)(F)F)c2)c1O (centres unmarked) [NUCC-0226279] | 85.1 |  | 2.1 |  |  | 
37 | Cn1nc(C(F)(F)F)cc1-c1ccc(OCc2ccc(Cl)cc2)c(-c2ccc(F)cc2)c1O [NUCC-0226503] | 129 |  | 3 |  |  | 
38 | Cc1ncsc1-c1ccc(CNC(=O)[C@@H]2C[C@@H](O)CN2C(=O)[C@@H](NCCOCCOc2ccc(COc3ccc(-c4cc(C(F)(F)F)nn4C)c(O)c3-c3ccc(Cl)c(C(F)(F)F)c3)cc2)C(C)(C)C)cc1 [NUCC-0226276] | 70 |  | 0.4 |  |  | 
